Test results published in patent publication US20090203701A1, “PROPHYLACTIC AND/OR THERAPEUTIC AGENT FOR RHEUMATOID ARTHRITIS” (KOWA CO., LTD, priority 2006, published 2009).

Tested on: rat collagen-induced arthritis model
Assay: Edema suppression in both hindlimbs, rat collagen-induced arthritis model
Format: in vivo
Design: key to Edema Index: sum of both hindlimb edema volumes on days 14, 18, 22, 26
Conditions: for Relative index: control group = 1.000; for Edema Index: average ± standard error
Description: For the cases of combined administration and respective single drug administrations of 2-benzyl-5-(4-chlorophenyl)-6-[4-(methylthio)phenyl]-2H-pyridazin-3-one and atorvastatin calcium hydrate, the effect of edema suppression in both hindlimbs was determined by the following method (rat collagen-induced arthritis model) (FDA, CBER, CDER, CDRH: Guidance for industry—Clinical development programs for drugs, devices, and biological products for the treatment of rheumatoid arthritis (RA)—.(1999)).
For the test animal, female Lewis rats (LEW/Crj) (obtained from Charles River Laboratories Japan, Inc.) were used.
For each 8-week-old LEW/Crj rat, the volume of a portion from the ankle to the toe tip of both hindlimbs (hereinafter, both hindlimbs volume) was measured by means of a plethysmometer for small animals (TK-101CMP, product of Unicom), and the total volume was taken as the both hindlimbs volume upon initiation of test (hereinafter, Pre value). This Pre value was used as an index to divide the rats into groups by randomized block design by the single variable, so that the values in the respective groups averaged out.
The collagen emulsion for sensitization that was used to induce arthritis in rats, was prepared by homogenizing a 0.3% Type II collagen solution (Collagen Research Center), Adjuvant Peptide (Peptide Institute, Inc.) and Adjuvant Incomplete Freund (DIFCO), using a Handy Micro Homogenizer (Microtec Nition, Co., Ltd.) under ice-cooling. The collagen emulsion thus prepared was intracutaneously administered at 10 sites in the back of each rat at a dose of 0.1 mL/site, to perform initial sensitization of the rat. Seven days after the initial sensitization, 0.12 mL of the same collagen emulsion was intracutaneously administered to the root of tail in each rat, to perform booster sensitization.
Drug administration was conducted from the day after the initial sensitization through 26 days thereafter. The group for sole administration of 2-benzyl-5-(4-chlorophenyl)-6-[4-(methylthio)phenyl]-2H-pyridazin-3-one (Drug A) was orally administered with the drug at 3 mg/kg, twice a day, in the morning (9:00 to 11:00) and in the evening (15:30 to 17:30). The group for sole administration of atorvastatin calcium hydrate (Drug B1) was orally administered with the drug at 30 or 100 mg/kg, once a day, in the afternoon (11:30 to 13:30). On the other hand, the group for combined administration of Drug A and Drug B1 was orally administered with Drug A at 3 mg/kg in the morning (9:00 to 11:00) and in the evening (15:30 to 17:30), and with Drug B1 at 30 or 100 mg/kg in the afternoon (11:30 to 13:30).
14, 18, 22 and 26 days after the initial sensitization, the both hindlimbs volume was measured again for each rat, and the difference between each of the values and the Pre value was determined to calculate the edema volume for both hindlimbs. The sum of the edema volumes for both hindlimbs measured 14, 18, 22 and 26 days after the initial sensitization was calculated as Edema Index, and this was taken as an index for the effects of the drugs.
Table 1 and FIG. 1 present the Edema Indices of the group for sole administration of 3 mg/kg of Drug A, the group for sole administration of 30 mg/kg of Drug B1, and the group for combined administration of both drugs. Furthermore, Table 2 and FIG. 2 present the Edema Indices of the group for sole administration of 3 mg/kg of Drug A, the group for sole administration of 100 mg/kg of Drug B1, and the group for combined administration of both drugs. The Edema Index is expressed in the average value±standard error of 8 rats in each group. Furthermore, the decrease rate is indicated as ((X−Y)/X)×100 (X: average Edema Index for control group, Y: average Edema Index for each group)

In the case of `CC(C)c1c(C(=O)Nc2ccccc2)c(-c2ccccc2)c(-c2ccc(F)cc2)n1CC[C@@H](O)C[C@@H](O)CC(=O)O` [Drug B1, atorvastatin calcium hydrate], the Relative index (Table 1 experiment, sole Drug B1 30 mg/kg orally once a day) is reported as 1.086, the “Decrease rate (%)” value (Table 1 experiment, sole Drug B1 30 mg/kg orally once a day, vs control group) is reported as −8.6% and the “Edema Index” value (Table 1 experiment, sole administration of Drug B1 30 mg/kg orally once a day, day 1-26) is reported as 6.07 ± 0.30. For the same compound, the Relative index (Table 2 experiment, sole Drug B1 100 mg/kg orally once a day) was 1.060, the “Decrease rate (%)” value (Table 2 experiment, sole Drug B1 100 mg/kg orally once a day, vs control group) was −6.0% and the “Edema Index” value (Table 2 experiment, sole administration of Drug B1 100 mg/kg orally once a day, day 1-26) was 6.57 ± 0.31. The “Effects on edema (Edema Index), in words” value (sole Drug B1 at the doses of 30 and 100 mg/kg) was “did not show any effects on edema”.
With `CSc1ccc(-c2nn(Cc3ccccc3)c(=O)cc2-c2ccc(Cl)cc2)cc1` [Drug A, 2-benzyl-5-(4-chlorophenyl)-6-[4-(methylthio)phenyl]-2H-pyridazin-3-one] the Relative index (Table 1 experiment, sole Drug A 3 mg/kg orally twice a day) was 0.935, the “Decrease rate (%)” value (Table 1 experiment, sole Drug A 3 mg/kg orally twice a day, vs control group Edema Index) was 6.5% and the “Edema Index” value (Table 1 experiment, sole administration of Drug A 3 mg/kg orally twice a day, day 1-26 after initial sensitization, sum of edema volumes on days 14, 18, 22, 26) was 5.23 ± 0.45. For the same compound, the Relative index (Table 2 experiment, sole Drug A 3 mg/kg orally twice a day) was 0.790, the “Decrease rate (%)” value (Table 2 experiment, sole Drug A 3 mg/kg orally twice a day, vs control group) was 21.0% and the “Edema Index” value (Table 2 experiment, sole administration of Drug A 3 mg/kg orally twice a day, day 1-26) was 4.89 ± 0.57.
